These results are taken from patent EP3431484A1, “A FLUORESCENT CYCLIC DINUCLEOTIDE AND ITS USE IN METHODS OF IDENTIFYING SUBSTANCES HAVING AN ABILITY TO MODULATE THE CGAS/STING PATHWAY” (Ludwig-Maximilians-Universität München, priority 2017, dated 2019).

In this experiment the test system is human truncated STING (hSTING^cd), cytosolic domain aa 139-379, R220H+H232R variant. The note with it: 200 µM hSTING^cd, 0-150 µM competitor; Figure 10d.

Method: The quenching effect of STING on 2'3'fGAMP can be further used to search and compare STING-binding compounds. […] After second round of incubation for 15 min the samples were measured in 96-well black non-binding PS plates (Greiner Bio-One) on Tecan infinite M1000 (λex=305 nm, λem=363 nm, gain 140, settle time 10ms) at 25°C.

Turning to `Nc1nc2c(ncn2[C@@H]2O[C@@H]3COP(=O)(O)O[C@H]4[C@@H](O)[C@H](n5cnc6c(=O)[nH]c(N)nc65)O[C@@H]4COP(=O)(O)O[C@H]3[C@H]2O)c(=O)[nH]1` [c-di-GMP], the “affinity towards STING, compared by slope of fluorescence increase (s1, s2)” value is listed as “lower affinity”.
